# Measurements from article PMC3975393, “Structure of N-Terminal Sequence Asp-Ala-Glu-Phe-Arg-His-Asp-Ser of Aβ-Peptide with Phospholipase A2 from Venom of Andaman Cobra Sub-Species Naja naja sagittifera at 2.0 Å Resolution” (International Journal of Molecular Sciences, 2014).
# Test system: PLA2
# Assay: X-ray co-crystal structure of the complex with PLA2 (PDB 3JQ5)
# Assay type: binding, Naja naja sagittifera
# Conditions: 2.0 Å resolution, peptide at 10-fold high molar concentration, 10 mM sodium phosphate pH 6.0, 1 mM CaCl2, 3 h incubation
# Experimental: The lyophilized samples of crude cobra venom of Naja naja sagittifera were obtained from Irula Snake Catchers Industrial Cooperative Society, Chennai, India. The crude venom was dissolved in 50 mM Tris-HCl, 100 mM NaCl, pH 7.0 at 100 mg/mL concentration and centrifuged at 12,000× g for 10 min to remove insoluble material. The collected supernatant was size fractionated on Sephadex G-100 column (100 × 2 cm) pre-equilibrated with 50 mM Tris-HCl, 100 mM NaCl, pH 7.0. The column was eluted with the same buffer at a flow rate of 6 mL/h. The peak corresponding to molecular weight of 14 kDa on SDS-PAGE and showing PLA2 activity was pooled for further purification. The pooled fractions were desalted and dialysed against 50 mM Tris-HCl, pH 7.0 and loaded on CM Sephadex C-50 column (Pharmacia, Uppsala, Sweden). The column was washed with the above buffer. The unbound fractions were pooled and dialysed against ammonium acetate buffer, pH 6.0. […] The N-terminal sequence of the first 15 residues was determined. […]
# The crystal structure was determined with molecular replacement method using auto-AMoRe from the CCP4 software suit (Collaborative Computational Project, Number 4, 1994). […] The rotation and translation functions calculated with data in the resolution range, 12.0–3.5 Å yielded a unique solution with the first peak being very distinct. […]
substance,measurement,setting,value
Asp-Ala-Glu-Phe-Arg-His-Asp-Ser [DAEFRHDS],binding in the substrate binding site / hydrophobic channel of PLA2,,strongly interacted with the non-polar binding-cavity residues of PLA2
same,binding in the substrate binding site / hydrophobic channel of PLA2,listed as octa-peptide,fitted well in the substrate binding site of enzyme
